According to patent publication US6300350A, “Treatment of emphysema using RARy selective retinoid agonists” (priority 2000, dated 2001):

Legend:
tropoelastin gene = assay: RAR transactivation of steady state tropoelastin gene in normal human lung fibroblasts (CCD-16Lu); assay type: cell-based
Procedure: Transactivation of the tropoelastin gene in normal human lung fibroblasts (CCD-16Lu) was performed as described below. Cells were grown to confluence at which time fresh media +/- ATRA or selective retiniod was added to the basal culture. ATRA and/or selective retiniods were used at a concentration of 1×10^-7 M. The cell layer was lysed using a guanidinium-based buffer (TRIZOL/Sigma) for RNA extraction and analysis. Amplification of tropoelastin and GAPDH RNA was performed by standard quantitative RT-PCR (TAQMAN, Perken/Elmer) using appropriate selective primers. Tropo-elastin gene expression was normalized to the expression of standard house-keeping gene (GAPDH).
Samples were run in triplicate.

[1] = tested on: elastase-induced emphysema; assay: Alveolar repair in rat model of elastase-induced emphysema, intraperitoneal; assay type: in vivo, male Sprague Dawley rats; design: Alveolar Area: unit not given here
Procedure: Animals were divided into treatment groups of approximately eight. […] Three weeks post injury ATRA or a RAR selective agonist was dissolved in DMSO (20 mg/ml) and stored at -20 C. Fresh working stocks were prepared fresh daily by dilution in corn oil to a final concentration of 2 mg/ml. […] Control groups were challenged with elastase and 21 days later treated with Vehicle (DMSO/PBS) for 14 days. Animals were sacrificed 24 hours after the last dose of by exsanguination under deep anesthesia. Blood was collected at time of exanguination for analysis of changes in blood chemistry from respective treatments. The lungs were inflated with 10% neutral buffered formalin by intratracheal instillation at a constant rate (1 ml/gram body mass/min). The lung was excised and immersed in fixative for 24 hours prior to processing. Standard methods were used to prepare 5 um paraffin sections. Sections were stained with Hematoxylin and Eosin (H%E). Computerized Morphometric analysis was performed to determine the average alveolar size and alveolar number.

experimental emphysema = assay: Alveolar repair in rat experimental emphysema, oral dosing; assay type: in vivo, rats; conditions: 1 mg/kg/PO daily for two weeks
Procedure: (§1) Three (3) weeks post injury animals were treated with vehicle (Capmul solution) or retinoids prepared in Capmul and dosed orally at 1, 3, and 10 mg/kg body weight. Animals were treated for 14 days prior to termination of study.
Dosage was at 1 mg/kg/PO daily for two weeks.

[2] = Plasma triglyceride levels in rats; assay type: in vivo; conditions: plasma, 1 mg/kg/PO daily for two weeks
Procedure: as §1, with “Experimental emphysema was induced in rats as described in Example 2. Three” for “Three”, “study. Lung harvest and blood collection was performed as described in Example 2.” for “study.”
Quantitation of triglycerides contained in rat plasma was performed after using established procedures in a contact clinical laboratory facility. Briefly, plasma triglycerides were converted to dihdroxyacetone and H2 O2, by sequential treatment of plasma with lipase and glycerokinase according directions described by manufacturer of triglycerides/GPO kit (Boehringer Mannheim #1488872). H2 02 was quantitated calorimetrically in a Hitachi 911 Chemistry Analyzer. In rats normal triglyceride levels are 75-175 mg/dl.
Dosage was at 1 mg/kg/PO daily for two weeks. […] Therefore, it appears that RARα selective activity is linked to elevated triglyceride levels.

alveolar septation = conditions: postnatal administration; newborn rats; listed as ATRA; cited from earlier work
emphysema = conditions: animal models of emphysema; cited from earlier work
RAR subtypes = conditions: cited from earlier work
RXR receptors = conditions: cited from earlier work

## CC1=C(/C=C/C(C)=C/C=C/C(C)=C/C(=O)O)C(C)(C)CCC1 [RAR Agonist 4, All-trans retinoic acid]
Tropoelastin gene; CCD-16Lu, 1×10^-7 M, RT-PCR, triplicate, untreated control 30.90
  Tropo-elastin Expression: 35.50 (Elastin/GAPDH) × 10^5
Tropoelastin gene; human lung fibroblasts, compared to the control
  tropoelastin gene induction (in words): slightly induces tropoelastin gene induction
[1]; 0.5 mg/kg ip once daily, from 21 days post injury, 14 days
  % Repair: 50%
[1]; 0.5 mg/kg ip once daily, from 21 days post injury, 14 days, naive 1637 +/- 153, elastase + vehicle 3570 +/- 319
  Alveolar Area: 2607 +/- 191
[1]; elastase-treated rats, 0.5 mg/kg ip
  alveolar repair (in words): induces alveolar repair, reversing the alveolar destruction caused by treatment with elastase
Experimental emphysema
  % Repair: 37.6%
[2]
  triglyceride levels (in words): either on the high end of normal or elevated
[2]; normal rat 75-175 mg/dl
  [Triglyceride]: 182 mg/dL
Alveolar septation
  number of alveoli / septation in lungs (in words): the capacity of dexamethasone to prevent the expression of CRBP and RARβ mRNA and subsequent alveolar septation in developing rat lung was abrogated by ATRA
emphysema
  formation of new alveoli and elastic recoil (in words): can induce formation of new alveoli and return elastic recoil to near normal
RAR subtypes
  binding to the three RAR subtypes (in words): binds with approximately equal affinity to all the three RAR subtypes
RXR receptors
  binding to RXR receptors (in words): does not bind to the RXR receptors
